Values joined by “and” are separate entries in the source; they are usually repeats but may differ in a detail not shown here. Equal values may be shown once.
How the values were obtained:
[1] = system: L. amazonensis amastigotes; assay: L. amazonensis amastigotes assay (RFP parasites in peritoneal macrophages); assay type: cell-based, Leishmania amazonensis (IFLA/BR/1967/PH8)
Procedure: Peritoneal macrophages obtained from BALB/c mice were transferred to a 24-well plate (6x10^5 cells/well) in RPMI 1640 medium supplemented with 10% inactivated FBS and 20 mM L-glutamine, pH 7.2. The plate was incubated at 37°C in 5% CO2 for 24 h. After this period, macrophages were infected with L. amazonensis (IFLA/BR/1967/PH8) transfected with RFP in the stationary growth phase using a ratio 1:10 (macrophages/parasites) at 33°C for 4 h. The non-phagocytosed parasites were subsequently removed by extensive PBS wash, and samples added at non-toxic concentrations, in accordance with the cytotoxicity tests (100 μg/mL to 1.56 μg/mL) to determine the IC50 for the intracellular parasite. After 72 h, the supernatant was removed from the wells and 200 μL of deionized water added to each well to lyse the cell membrane. After lysis, the resulting supernatants were transferred to a black 96-well plate. The plate was read in a fluorescence spectrophotometer (FLx800, BioTek Instruments, Inc., Winooski, VT, USA) with 540/600 nm of excitation/emission. Wells containing macrophages infected with L. amazonensis (RFP) […] only were used as negative controls.

[2] = system: L. amazonensis promastigotes; assay: Transmission electron microscopy (TEM); assay type: cell-based, Leishmania amazonensis; conditions: 11.4 μM, 24 h
Procedure: Leishmania amazonensis promastigotes (10^7 cells/mL) were treated with compound 3 (11.4 μM) or incubated with controls (medium alone or medium plus 0.01% DMSO) for 24 h at 26°C. The parasites were subsequently washed in PBS, fixed in 2.5% glutaraldehyde (in 0.1 M sodium cacodylate buffer) at pH 7.2 for 45 min at room temperature. After fixation, the specimens were washed three times successively with 0.1 M sodium cacodylate buffer, and postfixed in 1% osmium tetroxide, 0.8% potassium ferricyanide, and 5 mM of the CaCl2 in 0.1 M of the sodium cacodylate buffer (0.1 M, pH 7.2). Dehydration was performed in acetone, followed by the embedding resin (Spur, Sigma-Aldrich®). Ultrathin sections were contrasted with uranyl acetate and lead citrate and observed under a transmission electron microscope (JEOL 1011).

[3] = system: L. amazonensis promastigotes; assay: Mitochondrial membrane potential (MitoTracker); assay type: cell-based, Leishmania amazonensis; conditions: 24 h; 2 at 33.8 μM, 3 at 11.4 μM; FCCP 5.0 μM for 10 min
Procedure: After 24 h of incubation at 25°C, the parasite concentration was adjusted to 5x10^6 cells/mL and stained with 500 nM MitoTracker (Invitrogen, Eugene, OR, USA) in the dark for 40 min at 37°C. After washing twice with PBS, samples were transferred in triplicate to a black 96-well plate, and fluorescence measured in a spectrofluorometer (FLx800, BioTek Instruments, Inc., Winooski, VT, USA) at 540/600 nm excitation/emission. […] Louis, MO, USA) for 10 min were used to obtain maximal mitochondrial depolarization (positive control).

In the case of `C=C[C@@H](c1cc(CC=C(C)C)ccc1O)c1cc(CC=C(C)C)c(OC)cc1O` [Compound 3, connarin], the “SI (Selectivity Index)” value ([1]; CC50 macrophages / IC50 L. amazonensis amastigotes) is reported as 6.3, the IC50 ([1]; Leishmania amazonensis, Peritoneal macrophage, intracellular, 72 h) is reported as 1.13 µg/mL and 2.9 µM and the “ultrastructural modification (TEM)” value [2] is reported as “showed lipid bodies and the presence of vacuoles”. The “reduction in mitochondrial membrane potential (ΔΨm)” value [3] was 26.5%.

Source: publication PMC7647111, “Antileishmanial compounds from Connarus suberosus: Metabolomics, isolation and mechanism of action” (PLoS ONE, 2020)
